Our source for the EC50 values is patent publication US20240270821A1, “GIP/GLP1/GCG TRI-RECEPTOR AGONISTS AND USES THEREOF” (priority 2023, published 2024).

Type in all cases: cell-based
Experiment [1] concerns the target T1, hGLP-1R (Homo sapiens, UniProt P43220). In words: Functional cAMP activation in the presence of 0.1% casein (no HSA). The settings on record: read-out: Relative cAMP EC50, hGLP-1R.
Experiment [2] concerns the target human GcgR (Homo sapiens, UniProt P47871). In words: Functional cAMP activity in the presence of 1% HSA. The settings on record: read-out: cAMP Rel EC50, hGcgR.
Experiment [3] concerns the target T1, hGLP-1R. In words: Functional cAMP activity in the presence of 1% HSA. Conditions: read-out: cAMP Rel EC50, hGLP-1R.
For experiment [4], the target named is T2, hGIPR (Homo sapiens, UniProt P48546).
T2 sequence (P48546 22-466): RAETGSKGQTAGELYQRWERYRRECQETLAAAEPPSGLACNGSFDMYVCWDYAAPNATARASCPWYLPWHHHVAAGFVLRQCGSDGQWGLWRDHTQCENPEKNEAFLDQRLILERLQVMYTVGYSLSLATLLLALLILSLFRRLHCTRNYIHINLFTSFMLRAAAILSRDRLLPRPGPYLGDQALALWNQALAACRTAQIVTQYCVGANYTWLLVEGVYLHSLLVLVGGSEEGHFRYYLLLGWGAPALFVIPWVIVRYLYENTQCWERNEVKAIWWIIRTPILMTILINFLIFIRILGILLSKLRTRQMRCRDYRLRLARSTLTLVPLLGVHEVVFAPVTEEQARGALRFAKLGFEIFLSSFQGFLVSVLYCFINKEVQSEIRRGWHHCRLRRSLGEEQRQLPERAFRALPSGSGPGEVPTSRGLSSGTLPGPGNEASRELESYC
Put plainly: Functional cAMP activity in the presence of 1% HSA. The settings on record: read-out: cAMP Rel EC50, hGIPR.

Experiment [5] addresses T2, hGIPR. In words: Functional cAMP activation in the presence of 0.1% casein (no HSA). Conditions: read-out: Relative cAMP EC50, hGIPR.
Experiment [6] addresses hGcgR (Homo sapiens, UniProt P47871). The experiment is described as above. The settings on record: read-out: Relative cAMP EC50, hGcgR.
Setting [7] is: 0.1% casein, no HSA, geometric mean.
Setting [8] is: in the presence of 0.1% casein (no HSA), geometric mean.

pEC50: −log10 of the molar value. Like-named read-outs stand apart in the source and are kept apart here. Starred links: 1 amine or outer side, 2 acyl side, 3 side chain; linkers in the order of their positions; H or OH if unused. Non-standard residues stand in square brackets, D forms with d. Residues, ends and D or L forms follow the SMILES beside them. Groups on a side chain read outwards from the residue. No end group written: not given here. *: point of attachment. C20 diacid = O=C(O)CCCCCCCCCCCCCCCCCCC(=O)*; C18 diacid = O=C(O)CCCCCCCCCCCCCCCCC(=O)*; αMePhe(2-F) = C[C@](N)(Cc1ccccc1F)C(=O)O; γGlu = O=C(O)[C@H](CCC(=O)[*:2])N[*:1]; NMeY = CN[C@@H](Cc1ccc(O)cc1)C(=O)O; αMe4Pal = C[C@](N)(Cc1ccncc1)C(=O)O; αMeY = C[C@](N)(Cc1ccc(O)cc1)C(=O)O; 4Pal = N[C@@H](Cc1ccncc1)C(=O)O; αMeL = CC(C)C[C@](C)(N)C(=O)O; αMeS = C[C@](N)(CO)C(=O)O; Orn = NCCC[C@H](N)C(=O)O; AEEA = NCCOCCOCC(=O)O; Aib = CC(C)(N)C(=O)O
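For Relative cAMP EC50, hGIPR in this document: intracellular cAMP rise after 30 min at 37 °C read by HTRF against a standard curve, scaled between buffer alone (0%) and top control ligand concentration (100%), four-parameter fit.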
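For Relative cAMP EC50, hGLP-1R in this document: intracellular cAMP rise after 30 min at 37 °C read by HTRF, normalized between buffer only (0%) and maximal control ligand (100%), four-parameter variable-slope fit.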
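For Relative cAMP EC50, hGcgR in this document: intracellular cAMP rise after 30 min at 37 °C, read by HTRF against a cAMP standard curve, scaled from buffer only (0%) to maximal control ligand response (100%).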

Chain of human GcgR (P47871 26-477): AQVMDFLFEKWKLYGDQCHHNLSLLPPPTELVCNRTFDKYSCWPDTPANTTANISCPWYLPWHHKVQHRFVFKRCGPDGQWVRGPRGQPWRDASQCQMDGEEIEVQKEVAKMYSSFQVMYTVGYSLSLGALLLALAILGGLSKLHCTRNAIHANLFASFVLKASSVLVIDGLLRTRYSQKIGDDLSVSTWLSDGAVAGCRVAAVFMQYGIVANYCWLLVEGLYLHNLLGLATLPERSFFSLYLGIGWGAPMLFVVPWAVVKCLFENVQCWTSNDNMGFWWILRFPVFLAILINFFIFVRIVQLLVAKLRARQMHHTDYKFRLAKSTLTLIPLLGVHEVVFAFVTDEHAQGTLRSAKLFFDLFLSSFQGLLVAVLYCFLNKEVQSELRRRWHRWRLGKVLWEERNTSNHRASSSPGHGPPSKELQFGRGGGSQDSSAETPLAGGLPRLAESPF
Chain of hGcgR (P47871 26-477): as above
T1 sequence (P43220 24-463): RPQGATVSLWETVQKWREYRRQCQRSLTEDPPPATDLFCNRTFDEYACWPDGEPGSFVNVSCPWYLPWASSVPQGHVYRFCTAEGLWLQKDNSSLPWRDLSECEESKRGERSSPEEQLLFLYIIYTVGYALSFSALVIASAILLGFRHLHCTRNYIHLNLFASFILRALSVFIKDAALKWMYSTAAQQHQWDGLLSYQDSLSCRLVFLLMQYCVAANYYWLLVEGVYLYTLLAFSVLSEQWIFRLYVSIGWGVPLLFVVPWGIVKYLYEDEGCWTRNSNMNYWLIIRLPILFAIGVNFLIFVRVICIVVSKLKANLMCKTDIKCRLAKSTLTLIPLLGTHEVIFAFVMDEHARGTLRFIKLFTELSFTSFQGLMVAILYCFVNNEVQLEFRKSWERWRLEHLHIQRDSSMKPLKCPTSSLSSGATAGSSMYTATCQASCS

As a reminder, the pEC50 is the negative decadic logarithm of the EC50, by convention in mol/L. Turning to “H-Y[Aib]QGT[αMePhe(2-F)]TSD[4Pal][αMeS]I[αMeL]LD[Orn]K([AEEA-γGlu-C18 diacid])AQ[αMe4Pal]EFI[dE][αMeY]LIEGGPPS[Aib][Orn]PPP[Orn]GGGE-NH2 [Example 1197]”, the pEC50 in experiment [1] (setting [7]) is 9.39; in experiment [2], 6.54; in experiment [3], 7.34; in experiment [4] it was 9.19; in experiment [5] (setting [7]), 11.18; in experiment [6] (setting [7]), 8.73.
On to “Y[Aib]QGT[αMePhe(2-F)]TSD[4Pal][αMeS]I[αMeL]LD[Orn]K([AEEA-γGlu-C18 diacid])AQ[αMe4Pal]EFI[dE][αMeY]LVEGGPSSGAPPPSGGGE-NH2 [Example 769]”, for which the negative-log EC50 (pEC50) in experiment [1] was 9.61; in experiment [2] it was 6.57; in experiment [3] it was 7.47; in experiment [4], 8.99; in experiment [5] it was 11.07; in experiment [6] it was 8.88.
For “H-Y[Aib]QGT[αMePhe(2-F)]TSD[4Pal][αMeS]ILLD[Orn]K([γGlu-γGlu-C18 diacid])AQ[Aib][Orn]FI[dE][αMeY]LQEGGPSSGEPPPEGAEE-NH2 [Example 574]”, the negative logarithm of the EC50 (pEC50) in experiment [1] was 9.30; in experiment [2] it was 6.36; in experiment [3] it was 7.43; in experiment [4] it was 7.69; in experiment [5], 9.63; in experiment [6] it was 8.30.
As to “H-Y[Aib]QGT[αMePhe(2-F)]TSD[4Pal]SILLD[Orn]K([γGlu-γGlu-C18 diacid])AQ[Aib]AFIE[αMeY]LEEGGPSSGAPPPSGTGE-NH2 [Example 665]”, the negative logarithm of the EC50 (pEC50) in experiment [1] is 9.55; in experiment [2], 6.55; in experiment [3], 7.48; in experiment [4], 8.68; in experiment [5], 10.65; in experiment [6] it was 8.53.
For “Y[Aib]QGTFTSD[4Pal]S[Orn][αMeL]LDKK([γGlu-γGlu-C18 diacid])AQ[Aib]AFIE[αMeY]LLEGGPSSGAPPPSGSEE-NH2 [Example 944]”, the pEC50 in experiment [1] (setting [8]) was 8.31; in experiment [2] it was 5.74; in experiment [3], 6.01; in experiment [4], 7.43; in experiment [5] (setting [8]), 9.67; in experiment [6] (setting [8]), 8.21.
Take “H-Y[Aib]QGT[αMePhe(2-F)]TSD[4Pal][αMeS]ILLD[Orn]K([γGlu-γGlu-C18 diacid])AQ[Aib][Orn]FI[dE]YLIEGGPSSGEPPPSGTE-NH2 [Example 531]”: the pEC50 in experiment [1] is 9.45; in experiment [2] it was 6.33; in experiment [3], 7.42; in experiment [4], 8.28; in experiment [5] it was 10.16; in experiment [6] it was 8.42.
Consider “Y[Aib]QGT[αMePhe(2-F)]TSD[4Pal][αMeS]I[αMeL]LD[Orn]K([γGlu-γGlu-C18 diacid])AQ[Aib]NFI[dE][αMeY]LQEGGPSSGEPPPEGTE-NH2 [Example 526]”, for which the negative logarithm of the EC50 (pEC50) in experiment [1] is 9.38; in experiment [2] it was 6.28; in experiment [3], 7.64; in experiment [4] it was 8.67; in experiment [5], 10.44; in experiment [6] it was 8.06.
For the compound “H-Y[Aib]QGTFTSDFS[Orn][αMeL]LDKK([AEEA-γGlu-C18 diacid])AQ[αMe4Pal]AFIE[αMeY]LIEGGPSSGAPPPSGS-NH2 [Example 845]”, the negative-log EC50 (pEC50) was 9.79 in experiment [1] (setting [8]); 6.69 in experiment [2]; 7.05 in experiment [3]; 7.63 in experiment [4]; 9.75 in experiment [5] (setting [8]); 9.20 in experiment [6] (setting [8]).
`CC[C@H](C)[C@H](NC(=O)[C@H](Cc1ccccc1)NC(=O)[C@H](C)NC(=O)C(C)(C)NC(=O)[C@H](CCC(N)=O)NC(=O)[C@H](C)NC(=O)[C@H](CCCCNC(=O)COCCOCCNC(=O)CC[C@H](NC(=O)CCCCCCCCCCCCCCCCC(=O)O)C(=O)O)NC(=O)[C@H](CCCCN)NC(=O)[C@H](CC(=O)O)NC(=O)[C@H](CC(C)C)NC(=O)[C@](C)(CC(C)C)NC(=O)[C@@H](NC(=O)[C@H](CO)NC(=O)[C@H](Cc1ccncc1)NC(=O)[C@H](CC(=O)O)NC(=O)[C@H](CO)NC(=O)[C@@H](NC(=O)[C@](C)(Cc1ccccc1F)NC(=O)[C@@H](NC(=O)CNC(=O)[C@H](CCC(N)=O)NC(=O)C(C)(C)NC(=O)[C@@H](N)Cc1ccc(O)cc1)[C@@H](C)O)[C@@H](C)O)[C@@H](C)CC)C(=O)N[C@@H](CCC(=O)O)C(=O)N[C@@H](Cc1ccc(O)cc1)C(=O)N[C@@H](CC(C)C)C(=O)N[C@@H](CCC(=O)O)C(=O)N[C@@H](CCC(=O)O)C(=O)NCC(=O)NCC(=O)N1CCC[C@H]1C(=O)N[C@@H](CO)C(=O)N[C@@H](CO)C(=O)NCC(=O)N[C@@H](CCC(=O)O)C(=O)N1CCC[C@H]1C(=O)N1CCC[C@H]1C(=O)N1CCC[C@H]1C(=O)N[C@@H](CO)C(N)=O` [Example 442] (H-Y[Aib]QGT[αMePhe(2-F)]TSD[4Pal]SI[αMeL]LDKK([AEEA-γGlu-C18 diacid])AQ[Aib]AFIEYLEEGGPSSGEPPPS-NH2; N-terminus assumed): the pEC50 in experiment [1] is 9.57; in experiment [2], 6.47; in experiment [3], 7.62; in experiment [4], 8.74; in experiment [5], 10.63; in experiment [6], 8.25.
For the compound “H-Y[Aib]QGTFTSD[4Pal]SQ[αMeL]LD[Orn]K([AEEA-γGlu-C18 diacid])AQ[αMe4Pal]QFIE[αMeY]LIA[Aib]GPSSGEPPPSGSEE-NH2 [Example 1100]”, the pEC50 in experiment [1] (setting [8]) was 9.29; in experiment [2], 6.24; in experiment [3], 7.11; in experiment [4], 8.04; in experiment [5] (setting [8]), 10.16; in experiment [6] (setting [8]), 8.28.
In the case of `CC[C@H](C)[C@H](NC(=O)[C@H](Cc1ccccc1)NC(=O)[C@H](C)NC(=O)[C@](C)(Cc1ccncc1)NC(=O)[C@H](CCC(N)=O)NC(=O)[C@H](C)NC(=O)[C@H](CCCCNC(=O)CC[C@H](NC(=O)CC[C@H](NC(=O)CCCCCCCCCCCCCCCCC(=O)O)C(=O)O)C(=O)O)NC(=O)[C@H](CCCN)NC(=O)[C@H](CC(=O)O)NC(=O)[C@H](CC(C)C)NC(=O)[C@](C)(CC(C)C)NC(=O)[C@H](CCC(N)=O)NC(=O)[C@H](CO)NC(=O)[C@H](Cc1ccncc1)NC(=O)[C@H](CC(=O)O)NC(=O)[C@H](CO)NC(=O)[C@@H](NC(=O)[C@H](Cc1ccccc1)NC(=O)[C@@H](NC(=O)CNC(=O)[C@H](CCC(N)=O)NC(=O)C(C)(C)NC(=O)[C@@H](N)Cc1ccc(O)cc1)[C@@H](C)O)[C@@H](C)O)C(=O)N[C@@H](CCC(=O)O)C(=O)N[C@@H](Cc1ccc(O)cc1)C(=O)N[C@@H](CC(C)C)C(=O)N[C@H](C(=O)N[C@@H](CCC(=O)O)C(=O)N[C@H](C)C(=O)NCC(=O)N1CCC[C@H]1C(=O)N[C@@H](CO)C(=O)N[C@@H](CO)C(=O)NCC(=O)N[C@@H](C)C(=O)N1CCC[C@H]1C(=O)N1CCC[C@H]1C(=O)N1CCC[C@H]1C(=O)N[C@@H](CO)C(=O)NCC(=O)N[C@@H](CO)C(=O)N[C@@H](CCC(=O)O)C(N)=O)[C@@H](C)CC` [Example 1023], the pEC50 is 8.83 in experiment [1] (setting [8]); 6.07 in experiment [2]; 6.64 in experiment [3]; 7.59 in experiment [4]; 9.63 in experiment [5] (setting [8]); 8.42 in experiment [6] (setting [8]).
For “H-Y[Aib]QGTFTSD[4Pal]SQ[αMeL]LDKK([AEEA-γGlu-C18 diacid])AQ[αMe4Pal]AFIE[αMeY]LIEGGPSSGAPPPSGS-NH2 [Example 844]”, the negative logarithm of the EC50 (pEC50) in experiment [1] (setting [8]) is 9.21; in experiment [2], 6.23; in experiment [3] it was 6.82; in experiment [4], 7.36; in experiment [5] (setting [8]), 9.57; in experiment [6] (setting [8]), 8.55.
Turning to “H-Y[Aib]QGT[αMePhe(2-F)]TSD[4Pal]SI[αMeL]LD[Orn]K([AEEA-γGlu-C18 diacid])AQ[αMe4Pal]EFI[dE][αMeY]LLEGGPSSGAPPPSGE-NH2 [Example 615]”, the pEC50 in experiment [1] was 9.24; in experiment [2], 6.16; in experiment [3] it was 7.08; in experiment [4], 9.02; in experiment [5], 11.08; in experiment [6], 8.41.
Consider “H-[NMeY][Aib]QGTFTSD[4Pal][αMeS]Q[αMeL]LD[Orn]K([dE-γGlu-C18 diacid])AQ[αMe4Pal]QFIQ[αMeY]LIE[Aib]GPSSGAPPPSGGGE-NH2 [Example 1134]”, for which the pEC50 in experiment [1] (setting [8]) was 9.02; in experiment [2], 6.74; in experiment [3] it was 7.10; in experiment [4] it was 8.62; in experiment [5] (setting [8]), 10.41; in experiment [6] (setting [8]), 8.59.
“H-Y[Aib]QGTFTSDYSK[αMeL]LDKK([AEEA-γGlu-C20 diacid])AQQAFIQWLIEGGPSSGEPPPSEG-NH2 [Example 314]”: the pEC50 in experiment [1] (setting [8]) was 9.56; in experiment [2], 5.99; in experiment [3], 7.00; in experiment [4] it was 7.18; in experiment [5] (setting [8]), 9.46; in experiment [6] (setting [8]) it was 8.43.
